This note sets out measurements from patent US20100249071A1, “Modulators of S1P and Methods of Making And Using” (Exelixis, Inc., priority 2009, published 2010).

For one test, the target named is T1, S1P1 (Homo sapiens, UniProt P21453).
T1 construct: host or cells: U2OS
Description: Tango β-arrestin recruitment assay in U2OS cells (Assay 2b). The class given is cell-based. An excerpt: (§1) For the Tango™ β-arrestin recruitment assay, the cytoplasmic C-terminus of S1P1 was tethered to the tTA transcriptional activator with a linker that contains a cleavage site for the N1a protease from tobacco etch virus (TEV protease). The C-terminus of the human β-arrestin2 protein was fused to TEV protease. Binding of an agonist recruits the βl -arrestin-TEV fusion protein to the receptor resulting in cleavage of the linker and released of tTA to enter the nucleus and subsequently activated a tTA-dependent luciferase reporter gene.
Assay 2b: Alternatively, U2OS cells expressing the reporter gene and S1P1 (Invitrogen) were added to the wells of a 384-well white opaque bottom assay plate (PerkinElmer) at […]. The cells were serum starved for 48 h in Freestyle medium (Invitrogen). Test compounds were tested at maximum concentrations of 1 μM for the agonist assay. Compounds were diluted in DMSO (10 concentration points, 3-fold each) and added to the assay plate at a 1% final DMSO concentration. The efficacy control was 1 μM S1P (Avanti). For each compound, there were duplicate assay plates and each assay plate had duplicate wells per concentration point. The plate was incubated overnight at 37° C. The GeneBLAzer β-lactamase assay reagent (Invitrogen) was added and the plates were incubated for an additional 2 h at room temperature. Fluorescence was measured using an EnVision plate reader (PerkinElmer, Waltham, Mass.) at an excitation wavelength of 409 nm and emission wavelengths of 460 nm and 530 nm. The emission intensity at each wavelength was background subtracted against wells containing medium only and the F460 nm/F530 nm ratio determined for each concentration of the test compounds. Percent activity was calculated as [(test compound ratio−DMSO ratio)/(positive control ratio−DMSO ratio)*100], where the positive control and DMSO ratios are from cells incubated with the efficacy control 1 μM S1P and 1% DMSO, respectively. The percent activities were plotted against compound concentration to determine EC50 using XLFit (IDBS).
(In general: Recruitment of arrestin is a read-out of receptor activation apart from second messengers.)

Test [1] addresses T2, hS1P1R (hEdg1) membrane protein (Homo sapiens, UniProt P21453).
T2 construct: purchased Lonza
Kind of test: hS1P1R GTPγS binding assay (Assay 3a). In kind it is biochemical. As to the method:
Assay 3a: The hS1P1R GTPγS binding assay was carried out at room temperature in 96 well non-binding surface assay plates. The reaction in each well contained 4 μg hS1P1R (hEdg1) membrane protein (Lonza), 30 μM GDP, 0.1 nM [^35S]GTPγS, 0.25% fatty acid free BSA, and serially diluted hS1P1R agonist compound in 200 μL assay buffer (25 mM Tris-HCl PH 7.9, 100 mM NaCl, 3 mM MgCl2, and 0.2 mM EGTA). After one hour of incubation, 0.9 mg of WGA (Wheat Germ Agglutinin) SPA beads in 50 μL of assay buffer was added to each well. The SPA beads were spun down after an additional one hour incubation. The radioactivity of the bound GTPγS was counted by reading the assay plate using a MicroBeta.

The target of a further test is T3, S1P3 (Homo sapiens, UniProt Q99500).
T3 construct: host or cells: HEK293 (transient transfection)
T3 sequence (P32121 whole entry): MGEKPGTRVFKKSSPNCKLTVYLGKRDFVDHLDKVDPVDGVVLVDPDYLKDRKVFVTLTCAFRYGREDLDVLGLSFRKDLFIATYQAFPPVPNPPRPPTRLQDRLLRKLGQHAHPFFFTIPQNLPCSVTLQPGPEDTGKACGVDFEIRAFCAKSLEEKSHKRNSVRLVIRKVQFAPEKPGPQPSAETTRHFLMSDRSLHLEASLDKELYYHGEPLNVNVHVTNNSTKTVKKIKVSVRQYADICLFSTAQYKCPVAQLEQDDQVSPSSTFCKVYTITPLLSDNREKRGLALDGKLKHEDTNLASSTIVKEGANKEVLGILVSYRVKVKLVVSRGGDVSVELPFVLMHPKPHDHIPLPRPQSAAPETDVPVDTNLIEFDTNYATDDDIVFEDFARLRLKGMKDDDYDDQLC
T3 sequence (Q99500 whole entry): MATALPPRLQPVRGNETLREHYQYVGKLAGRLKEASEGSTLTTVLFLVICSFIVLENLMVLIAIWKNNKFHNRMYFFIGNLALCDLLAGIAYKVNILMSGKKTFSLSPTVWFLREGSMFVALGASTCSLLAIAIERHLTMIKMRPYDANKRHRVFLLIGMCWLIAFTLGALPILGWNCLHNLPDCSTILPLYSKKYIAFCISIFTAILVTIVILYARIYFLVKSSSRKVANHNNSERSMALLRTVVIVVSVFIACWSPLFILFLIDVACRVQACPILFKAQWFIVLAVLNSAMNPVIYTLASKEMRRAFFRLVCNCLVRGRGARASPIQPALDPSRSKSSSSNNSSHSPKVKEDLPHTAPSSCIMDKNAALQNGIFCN
Description: S1P3 Tango β-arrestin recruitment assay in HEK293 cells (Assay 5). The class given is cell-based. As to conditions: read-out: Assay 5 EC50.
From the text: as §1
Assay 2a: Frozen HEK293 cells transiently transfected with receptor cDNAs for S1P1 (Invitrogen) are thawed and suspended in 10 mL of Pro293a-CDM culture medium (Invitrogen) supplemented with 4 mM L-Glutamine (Invitrogen), 1× Pen/Strep (100 units/mL penicillin and 100 μg/mL streptomycin, Invitrogen) and 0.1% fatty acid free BSA (Sigma-Aldrich). Cells are added to the wells of a 384-well white opaque bottom assay plate (PerkinElmer) at 3,000-6,000 cells per well and the plate is incubated for approximately 4 h in a 37° C. incubator. Test compounds are tested at maximum concentrations of 10 μM for the agonist assays. Compounds are diluted in DMSO (10 concentration points, 3-fold each) and added to the assay plate at a 1% final DMSO concentration. For each compound, there are duplicate assay plates and each assay plate has duplicate wells per concentration point. The plate is incubated at 37° C. for 30 min. The efficacy control is 5 μM S1P (Avanti). Following agonist addition, the assay plates are incubated in a 37° C. incubator for 16-18 h. Luciferase assay reagent is added and luminescence measured in an EnVision plate reader (PerkinElmer). To determine agonist activity, percent activity is calculated as [(test compound−background)/(positive control−background)*100], where background is the luminescence of the DMSO alone control and the positive control is the luminescence from cells incubated with the efficacy control 5 μM S1P. The percent activities are plotted against compound concentration to determine EC50 using XLFit (IDBS).
This assay was conducted using the procedures described in Assay 2a, replacing S1P1 with S1P3.

For test [2], the target named is T4, hS1PR5 (hEdg8) membrane protein (Homo sapiens, UniProt Q9H228).
T4 construct: expressed in transfected cells; host or cells: CHO
T4 sequence (Q9H228 whole entry): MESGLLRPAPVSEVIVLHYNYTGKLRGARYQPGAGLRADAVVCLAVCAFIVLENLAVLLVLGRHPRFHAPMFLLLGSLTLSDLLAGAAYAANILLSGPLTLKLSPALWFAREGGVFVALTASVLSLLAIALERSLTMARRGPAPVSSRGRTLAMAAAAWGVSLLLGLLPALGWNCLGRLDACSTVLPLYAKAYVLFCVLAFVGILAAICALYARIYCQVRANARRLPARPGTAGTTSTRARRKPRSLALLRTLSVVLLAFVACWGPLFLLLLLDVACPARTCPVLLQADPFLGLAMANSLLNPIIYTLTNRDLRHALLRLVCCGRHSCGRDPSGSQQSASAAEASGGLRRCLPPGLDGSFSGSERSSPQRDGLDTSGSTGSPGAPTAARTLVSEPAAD
Kind of test: hS1P5R GTPγS binding assay (Assay 4). In kind it is biochemical. As to the method:
The hS1PR5 GTPγS binding assay was carried out at room temperature in 96-well non-binding surface assay plates. The reaction in each well contained 5 μg hS1PR5 (hEdg8) membrane protein from CHO cells expressing hS1PR5, 30 μM GDP, 0.1 nM [^35S]GTPγS, 0.25% fatty acid free BSA, and serially-diluted Compound of the Invention in 200 μL assay buffer (25 mM Tris-HCl PH 7.9, 100 mM NaCl, 3 mM MgCl2, and 0.2 mM EGTA). After one hour of incubation, 0.9 mg of WGA (Wheat Germ Agglutinin) SPA beads in 50 μL of assay buffer was added to each well. The SPA beads were spun down after an additional one hour incubation. The radioactivity of the bound GTPγS was counted by reading the assay plate using a MicroBeta.
For orientation: GTPγS resists hydrolysis and so accumulates on activated G proteins.

Where two headings read alike, the source gives them in different places.

T1 sequence (P32121 whole entry): as the sequence (P32121 whole entry) above
T1 sequence (P21453 whole entry): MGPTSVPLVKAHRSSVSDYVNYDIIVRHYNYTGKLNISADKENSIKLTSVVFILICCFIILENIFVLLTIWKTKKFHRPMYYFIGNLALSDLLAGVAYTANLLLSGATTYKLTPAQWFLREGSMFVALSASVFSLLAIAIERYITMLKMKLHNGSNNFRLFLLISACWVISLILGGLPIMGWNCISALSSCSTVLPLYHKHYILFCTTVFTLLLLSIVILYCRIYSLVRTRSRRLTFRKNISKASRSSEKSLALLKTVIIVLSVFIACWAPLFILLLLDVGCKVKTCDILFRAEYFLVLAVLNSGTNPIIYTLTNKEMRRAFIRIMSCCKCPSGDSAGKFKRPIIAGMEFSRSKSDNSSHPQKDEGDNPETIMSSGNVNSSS
T2 sequence (P21453 whole entry): as above

Consider `NC(CO)COc1cc(Cl)c(-c2nnc(-c3cn4ccsc4n3)s2)cc1F` (stereo not shown) [Entry 4, 2-amino-3-{[5-chloro-2-fluoro-4-(5-imidazo[2,1-b][1,3]thiazol-6-yl-1,3,4-thiadiazol-2-yl)phenyl]oxy}propan-1-ol], for which the EC50 – broadly, the midpoint of the concentration-response curve – at S1P1 (read-out: Assay 2b EC50) is 50 to 250 nM; in test [1] it was more than 10000 nM.
Consider `N[C@H](CO)COc1cc(Cl)c(-c2nnc(-c3ccc(OC(F)(F)F)cc3)s2)cc1F` [Entry 7, (2R)-2-amino-3-{[5-chloro-2-fluoro-4-(5-{4-[(trifluoromethyl)oxy]phenyl}-1,3,4-thiadiazol-2-yl)phenyl]oxy}propan-1-ol], for which the EC50 on S1P1 (read-out: Assay 2b EC50) was 250 to 2800 nM; in test [1], 50 to 250 nM.
The matching figures for `N[C@H](CO)COc1cc(Cl)c(-c2nnc(-c3ccc(OC(F)(F)F)c(Cl)c3)s2)cc1F` [Entry 8, (2R)-2-amino-3-{[5-chloro-4-(5-{3-chloro-4-[(trifluoromethyl)oxy]phenyl}-1,3,4-thiadiazol-2-yl)-2-fluorophenyl]oxy}propan-1-ol]: 250 to 2800 nM and 50 to 250 nM.
As to `CC(C)Oc1ccc(-c2nnc(-c3cc(F)c(OCC(N)CO)cc3Cl)s2)nc1Cl` (stereo not shown) [Entry 14, 2-amino-3-{[5-chloro-4-(5-{6-chloro-5-[(1-methylethyl)oxy]pyridin-2-yl}-1,3,4-thiadiazol-2-yl)-2-fluorophenyl]oxy}propan-1-ol], the figures for the concentration giving a half-maximal response (EC50) (on S1P1 (read-out: Assay 2b EC50); in test [1]; on S1P3) were not above 10 nM, 10 to 50 nM and not above 250 nM, respectively.
With `N[C@H](CO)COc1cc(Cl)c(-c2nnc(-c3cc(Cl)cc(Br)c3)s2)cc1F` [Entry 23, (2R)-2-amino-3-({4-[5-(3-bromo-5-chlorophenyl)-1,3,4-thiadiazol-2-yl]-5-chloro-2-fluorophenyl}oxy)propan-1-ol], the EC50 (in test [2]; on S1P1 (read-out: Assay 2b EC50); in test [1]) was 250 to 2800 nM each time.
Regarding `CC(C)Oc1c(Cl)cc(-c2nnc(-c3cc(F)c(OC[C@H](N)CO)cc3Cl)s2)cc1Cl` [Entry 26, (2R)-2-amino-3-{[5-chloro-4-(5-{3,5-dichloro-4-[(1-methylethyl)oxy]phenyl}-1,3,4-thiadiazol-2-yl)-2-fluorophenyl]oxy}propan-1-ol], the EC50 was in the range of 250 to 2800 nM in test [2], 250 to 2800 nM at S1P1 (read-out: Assay 2b EC50) and 50 to 250 nM in test [1].
As to `CC(C)Oc1cc(Br)cc(-c2nnc(-c3cc(F)c(OC[C@H](N)CO)cc3Cl)s2)c1` [Entry 27, (2R)-2-amino-3-{[4-(5-{3-bromo-5-[(1-methylethyl)oxy]phenyl}-1,3,4-thiadiazol-2-yl)-5-chloro-2-fluorophenyl]oxy}propan-1-ol], the results for the EC50 (at S1P1 (read-out: Assay 2b EC50); in test [1]) were 250 to 2800 nM and 50 to 250 nM, respectively.
As to `N[C@H](CO)COc1cc(Cl)c(-c2nnc(-c3cc(Br)cc(OC(F)(F)F)c3)s2)cc1F` [Entry 28, (2R)-2-amino-3-{[4-(5-{3-bromo-5-[(trifluoromethyl)oxy]phenyl}-1,3,4-thiadiazol-2-yl)-5-chloro-2-fluorophenyl]oxy}propan-1-ol], the EC50 was 50 to 250 nM at S1P1 (read-out: Assay 2b EC50), 50 to 250 nM in test [1] and more than 10000 nM on S1P3.
As for `N[C@H](CO)COc1cc(Cl)c(-c2nnc(-c3cc(Br)cc(Br)c3)s2)cc1F` [Entry 30, (2R)-2-amino-3-({5-chloro-4-[5-(3,5-dibromophenyl)-1,3,4-thiadiazol-2-yl]-2-fluorophenyl}oxy)propan-1-ol], the EC50 was in the range of 2800 to 10000 nM in test [2], 250 to 2800 nM at S1P1 (read-out: Assay 2b EC50) and 250 to 2800 nM in test [1].
As to `CC(C)N(C)c1cc(-c2nnc(-c3cc(F)c(OC[C@@H](N)CO)cc3Cl)s2)cc(Cl)n1` [Entry 31, (2S)-2-amino-3-{[5-chloro-4-(5-{2-chloro-6-[methyl(1-methylethyl)amino]pyridin-4-yl}-1,3,4-thiadiazol-2-yl)-2-fluorophenyl]oxy}propan-1-ol], the EC50 on S1P1 (read-out: Assay 2b EC50) is not above 10 nM; in test [1] it was 50 to 250 nM; at S1P3 it was not above 250 nM.
Turning to `CC(C)Oc1ccc(-c2nnc(-c3cc(F)c(OC[C@H](N)CO)cc3Cl)s2)cc1F` [Entry 42, (2R)-2-amino-3-{[5-chloro-2-fluoro-4-(5-{3-fluoro-4-[(1-methylethyl)oxy]phenyl}-1,3,4-thiadiazol-2-yl)phenyl]oxy}propan-1-ol], the concentration giving a half-maximal response (EC50) was in the range of 50 to 250 nM in test [2], 50 to 250 nM on S1P1 (read-out: Assay 2b EC50) and 10 to 50 nM in test [1].
With `CC(C)Nc1cc(-c2nnc(-c3cc(F)c(OC[C@H](N)[C@H](C)O)cc3Cl)s2)ccn1` [Entry 58, (2S,3S)-3-amino-4-{[5-chloro-2-fluoro-4-(5-{2-[(1-methylethyl)amino]pyridin-4-yl}-1,3,4-thiadiazol-2-yl)phenyl]oxy}butan-2-ol], the EC50 in test [2] fell in the range of 250 to 2800 nM; on S1P1 (read-out: Assay 2b EC50), 250 to 2800 nM; in test [1], 50 to 250 nM.
In the case of `Cc1cc(-c2nnc(-c3cc(F)c(OC[C@H](N)[C@H](C)O)cc3Cl)s2)cnc1NC(C)C` [Entry 66, (2S,3S)-3-amino-4-{[5-chloro-2-fluoro-4-(5-{5-methyl-6-[(1-methylethyl)amino]pyridin-3-yl}-1,3,4-thiadiazol-2-yl)phenyl]oxy}butan-2-ol], at S1P1 (* = rEC50 measured rather than EC50, read-out: Assay 2b rEC50 (relative EC50, cells marked *)), the EC50 lay in the range of 250 to 2800 nM.
In the case of `N[C@H](CO)COc1cc(Cl)c(-c2nnc(-c3cc(-c4ccccc4)c(C(F)(F)F)s3)s2)cc1F` [Entry 84, (2R)-2-amino-3-[(5-chloro-2-fluoro-4-{5-[4-phenyl-5-(trifluoromethyl)-2-thienyl]-1,3,4-thiadiazol-2-yl}phenyl)oxy]propan-1-ol], the EC50 on S1P1 (read-out: Assay 2b EC50) is 250 to 2800 nM.
Turning to `CCCOc1ccc(-c2nnc(-c3cc(F)c(OC[C@H](N)CO)cc3Cl)s2)cc1` [Entry 91, (2R)-2-amino-3-[(5-chloro-2-fluoro-4-{5-[4-(propyloxy)phenyl]-1,3,4-thiadiaozl-2-yl}phenyl)oxy]propan-1-ol], the EC50 in test [2] fell in the range of 250 to 2800 nM; at S1P1 (read-out: Assay 2b EC50) it was 250 to 2800 nM; in test [1], 50 to 250 nM.
For “(1R,2R)-2-amino-3-{[5-chloro-2-fluoro- 4-(5-{2-methyl-6-[(1- methylethyl)amino]pyridin-4-yl}-1,3,4- thiadiazol-2-yl)phenyl]oxy}-1- methylpropyl dihydrogen phosphate [Entry 100]”, the EC50 in test [2] is 10 to 50 nM; on S1P1 (read-out: Assay 2b EC50), not above 10 nM; in test [1] it was not above 10 nM.
